Results published in US8796293B2, “Purine and deazapurine derivatives as pharmaceutical compounds” (Astex Therapeutics Limited, priority 2006, dated 2014).
Read-outs that look alike come from different tables or passages of the source.

Assays:
P70S6 kinase (T412E) = P70S6 kinase (T412E) (Homo sapiens (Human), UniProt P23443, T412E); assay: P70S6 radiometric assay; type: biochemical
Description: P70S6 enzyme is bought from Upstate and used at 2 nM in the assay. […] In the phosphoryl transfer reaction, the ^33P-γ phosphate from ATP is transferred to the serine residue. The reaction mixture is transferred to a phosphocellulose filter plate where the peptide binds and the unused ATP is washed away. After washing, scintillant is added and the incorporated activity measured by scintillation counting.
ATP (10 mM stock) added fresh from concentrated stocks.
Compounds—prepare a dilution curve in DMSO in a polypropylene 96 well plate to 40× final assay concentration (final DMSO 2.5%).
In a polypropylene 96 well plate add in order: • 5 μl compound • 10 μl substrate mix • 10 μl enzyme mix
Controls are “no compound” (DMSO only) and “no enzyme” (use 10 μl of the enzyme mix prior to adding enzyme). Cover with a plate seal (TopSeal A—Packard) or plastic lid from filter plate (moderate radiation barrier). Mix by gentle shaking. Incubate at room temperature for 50 minutes. Stop the reaction by adding 20 μl of 2% orthophosphoric acid.
Pre-wet the wells of a Millipore MAPH NOB plate with 50 μl of 0.5% orthophosphoric acid wash buffer. Filter the liquid through on a Millipore vacuum filtration unit. Transfer the whole of the stopped reaction to the wells. Filter through. Wash twice with 200 μl of 0.5% orthophosphoric acid wash buffer. Vacuum to near dryness. Remove the plate support and allow to the filters to dry further on tissue paper. Snap the plate into an adapter for the Packard TopCount. Add 20 μl of Microscint 20 scintillant, seal with a sheet of Topseal A and count for 30s on the TopCount.

ROCK-II (h) = ROCK-II (h) (Homo sapiens (Human), UniProt O75116); assay: ROCK-II (h) assay, radiometric filter assay; type: biochemical; conditions: read-out: IC50 (anti-ROCK-II activity)
Description: (specific activity approx. 500 cpm/pmol, concentration as required). The reaction is initiated by the addition of the MgATP mix. After incubation for 40 minutes at room temperature, the reaction is stopped by the addition of 5 μl of a 3% phosphoric acid solution. 10 μl of the reaction is then spotted onto a P30 filtermat and washed three times for 5 minutes in 75 mM phosphoric acid and once in methanol prior to drying and scintillation counting.
The compound of various examples described above were tested for anti-ROCK-II activity (assay as described above): […]

blood pressure = conditions: cited from earlier work
[1] = rat, in vivo, po, 30 mg/kg; cited from earlier work
[2] = enzyme 2 nM, ATP approximately 15 μM, 50 minutes at room temperature, read-out: IC50 (anti-P70S6K activity)
[3] = [γ-33P-ATP], 40 minutes at room temperature

Sequence of ROCK-II (h) (O75116 whole entry): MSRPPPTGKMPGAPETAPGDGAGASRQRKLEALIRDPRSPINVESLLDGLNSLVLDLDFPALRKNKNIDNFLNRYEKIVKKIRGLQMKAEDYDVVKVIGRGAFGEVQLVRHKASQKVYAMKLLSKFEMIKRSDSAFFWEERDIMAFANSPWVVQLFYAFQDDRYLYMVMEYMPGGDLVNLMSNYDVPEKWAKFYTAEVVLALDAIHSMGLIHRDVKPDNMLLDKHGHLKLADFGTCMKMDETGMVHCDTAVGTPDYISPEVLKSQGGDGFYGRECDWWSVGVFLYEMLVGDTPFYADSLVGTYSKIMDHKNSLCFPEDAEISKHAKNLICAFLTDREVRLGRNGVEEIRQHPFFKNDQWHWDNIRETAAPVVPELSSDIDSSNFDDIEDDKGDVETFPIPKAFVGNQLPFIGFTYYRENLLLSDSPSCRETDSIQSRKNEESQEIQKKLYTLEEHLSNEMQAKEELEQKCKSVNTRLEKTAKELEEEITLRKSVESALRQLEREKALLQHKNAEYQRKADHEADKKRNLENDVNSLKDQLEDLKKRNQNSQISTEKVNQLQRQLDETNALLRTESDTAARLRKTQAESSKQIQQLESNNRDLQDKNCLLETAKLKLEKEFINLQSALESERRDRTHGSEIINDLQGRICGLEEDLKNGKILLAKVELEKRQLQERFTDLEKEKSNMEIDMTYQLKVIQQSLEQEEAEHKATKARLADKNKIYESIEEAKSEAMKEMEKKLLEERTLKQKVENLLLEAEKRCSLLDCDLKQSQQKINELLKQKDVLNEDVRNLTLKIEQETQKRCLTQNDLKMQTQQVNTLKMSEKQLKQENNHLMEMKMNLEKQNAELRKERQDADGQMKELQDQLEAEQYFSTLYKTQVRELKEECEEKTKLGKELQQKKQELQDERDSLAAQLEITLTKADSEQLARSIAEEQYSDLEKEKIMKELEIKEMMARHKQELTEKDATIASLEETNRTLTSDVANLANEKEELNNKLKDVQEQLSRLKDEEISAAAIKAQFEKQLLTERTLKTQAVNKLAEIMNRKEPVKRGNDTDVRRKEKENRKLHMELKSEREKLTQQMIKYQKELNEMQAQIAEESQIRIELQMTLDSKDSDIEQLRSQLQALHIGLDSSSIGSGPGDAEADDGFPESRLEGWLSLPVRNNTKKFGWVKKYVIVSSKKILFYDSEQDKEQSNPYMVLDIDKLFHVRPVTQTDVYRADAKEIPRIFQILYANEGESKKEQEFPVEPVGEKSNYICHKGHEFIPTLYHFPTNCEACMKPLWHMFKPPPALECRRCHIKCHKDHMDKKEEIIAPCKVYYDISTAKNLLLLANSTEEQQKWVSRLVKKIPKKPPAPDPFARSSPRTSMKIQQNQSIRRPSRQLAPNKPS
Sequence of P70S6 kinase (T412E) (P23443 whole entry T412E): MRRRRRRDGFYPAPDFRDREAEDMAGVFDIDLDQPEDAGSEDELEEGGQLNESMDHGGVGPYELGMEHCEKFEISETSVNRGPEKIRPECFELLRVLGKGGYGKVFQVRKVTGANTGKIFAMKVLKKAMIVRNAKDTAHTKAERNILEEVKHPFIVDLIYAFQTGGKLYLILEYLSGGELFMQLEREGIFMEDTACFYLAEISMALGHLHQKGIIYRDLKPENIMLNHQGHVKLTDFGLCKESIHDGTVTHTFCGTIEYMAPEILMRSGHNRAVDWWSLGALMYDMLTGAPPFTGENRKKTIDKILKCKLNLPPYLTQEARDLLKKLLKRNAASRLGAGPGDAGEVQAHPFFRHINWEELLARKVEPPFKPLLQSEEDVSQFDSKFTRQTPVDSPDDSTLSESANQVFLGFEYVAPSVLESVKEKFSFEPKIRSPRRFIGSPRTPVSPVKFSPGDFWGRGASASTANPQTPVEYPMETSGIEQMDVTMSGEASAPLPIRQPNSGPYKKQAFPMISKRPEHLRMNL

IC50 (P70S6 kinase (T412E); [2]) [µM] | IC50 (ROCK-II (h); [3]) [µM] | Structure (SMILES) | other results
0.094 | < 1 | NC1(Cc2ccc(Cl)cc2)CCN(c2ncnc3[nH]ccc23)CC1 [Example 17, 4-(4-Chlorobenzyl)-1-(7H-pyrrolo[2,3-d]pyrimidin-4-yl)piperidin-4-ylamine] | 
 |  | NC1(c2ccc(Cl)cc2)CCN(c2ncnc3[nH]ccc23)CC1 [Example 25, 4-(4-Chlorophenyl)-1-(7H-pyrrolo[2,3-d]pyrimidin-4-yl)piperidin-4-ylamine] | IC50 (P70S6 kinase (T412E)): 0.013 µM
0.007 |  | NCC1(c2ccc(OC(F)(F)F)cc2)CCN(c2ncnc3[nH]ccc23)CC1 [Example 30] | 
0.03 | < 0.01 | NC1(Cc2ccc(Cl)cc2)CCN(c2ccnc3[nH]ccc23)CC1 [Example 54, 4-(4-Chlorobenzyl)-1-(1H-pyrrolo[2,3-b]pyridin-4-yl)-piperidin-4-ylamine] | 
 | > 1 | NC1(Cc2ccccc2Cl)CCN(c2ncnc3[nH]ccc23)CC1 [Example 55, 4-(2-Chlorobenzyl)-1-(7H-pyrrolo[2,3-d]pyrimidin-4-yl)piperidin-4-ylamine] | 
 |  | C[C@@H](N)[C@H]1CC[C@H](C(=O)Nc2ccncc2)CC1 [Example Y-27632] | effect on blood pressure (blood pressure; hypertensive rats): reduces blood pressure; effect on blood pressure (blood pressure; normal rats): does not affect blood pressure; toxicity in rats [1]: not toxic

Structure (SMILES) | IC50 (P70S6 kinase (T412E); [2]) [µM] | IC50 (ROCK-II (h); [3]) [µM] | other results
NC1CCN(c2ncnc3[nH]c(=O)[nH]c23)CC1 [Example 4, 6-(4-Aminopiperidin-1-yl)-7,9-dihydropurin-8-one] | 3 |  | IC50 (ROCK-II (h)): > 1 µM
NC1(Cc2ccc(Cl)cc2Cl)CCN(c2ncnc3[nH]ccc23)CC1 [Example 59, 4-(2,4-Dichlorobenzyl)-1-(7H-pyrrolo[2,3-d]pyrimidin-4-yl)piperidin-4-ylamine] | 0.059 |  | IC50 (ROCK-II (h)): < 0.03 µM
